Counter-ions that a name gives are not always drawn.

The assay concerns the target cGMP-specific 3',5'-cyclic phosphodiesterase PDE5 (Sus scrofa). Briefly: In vitro inhibition of PDE-V isolated from porcine pulmonary artery.
For orientation: IC50 means the concentration that inhibits the measured activity by half. Read a low IC50 as higher potency. For `c1ccc(COc2ccccc2-c2nc3ncccc3[nH]2)cc1` [2-(2-Benzyloxy-phenyl)-3H-imidazo[4,5-b]pyridine], the midpoint of inhibition, the IC50, lay at 4 µM.

Regarding `CCCCOc1ccccc1-c1nc2ncccc2[nH]1` [2-(2-Butoxy-phenyl)-3H-imidazo[4,5-b]pyridine], inhibition was half-maximal at 1 µM (IC50).

`c1ccc(-c2nc3ncccc3[nH]2)c(OC2CCCC2)c1` [2-(2-Cyclopentyloxy-phenyl)-3H-imidazo[4,5-b]pyridine]: the half-maximal inhibitory concentration (IC50) was found to be 15 µM. This IC50 lies about 15-fold higher than the previous one.

Consider `c1ccc(-c2nc3ncccc3[nH]2)c(OCC2CC2)c1` [2-(2-Cyclopropylmethoxy-phenyl)-3H-imidazo[4,5-b]pyridine], for which the IC50 came out at 6 µM.

As for `CCOc1ccccc1-c1nc2ncccc2[nH]1` [2-(2-Ethoxy-phenyl)-3H-imidazo[4,5-b]pyridine], the IC50 came out at 18 µM.

`CCCCCCOc1ccccc1-c1nc2ncccc2[nH]1` [2-(2-Hexyloxy-phenyl)-3H-imidazo[4,5-b]pyridine] displayed an IC50 of 4 µM.

`COc1ccccc1-c1nc2ccncc2[nH]1` [2-(2-Methoxy-phenyl)-3H-imidazo[4,5-c]pyridine; hydrochloride] showed an IC50 of 42 µM.

With `CCCCCOc1ccccc1-c1nc2ncccc2[nH]1` [2-(2-Pentyloxy-phenyl)-3H-imidazo[4,5-b]pyridine], the IC50 was 1 µM.

In the case of `CCCCCOc1ccccc1-c1nc2ccncc2[nH]1` [2-(2-Pentyloxy-phenyl)-3H-imidazo[4,5-c]pyridine; hydrochloride], inhibition was half-maximal at 1 µM (IC50).

`CCCOc1ccccc1-c1cn2cccnc2n1` [2-(2-Propoxy-phenyl)-imidazo[1,2-a]pyrimidine]: the IC50 was 33 µM.

`CCCSc1ccccc1-c1nc2ncccc2[nH]1` [2-(2-Propylsulfanyl-phenyl)-3H-imidazo[4,5-b]pyridine]: the IC50 was 24 µM.

For `Oc1ccccc1-c1nc2ncccc2[nH]1` [2-(3H-Imidazo[4,5-b]pyridin-2-yl)-phenol], 37 µM corresponded to half-maximal inhibition (IC50).

With `COc1cc([S+](C)[O-])ccc1-c1nc2cnccc2[nH]1` (stereo unspecified) [2-(4-Methanesulfinyl-2-methoxy-phenyl)-1H-imidazo[4,5-c]pyridine(isomazole)], the IC50 worked out at 58 µM. This IC50 is about 1.6-fold higher than that of the compound before.

With `ClCCCOc1ccccc1-c1nc2ncccc2[nH]1` [2-[2-(3-Chloro-propoxy)-phenyl]-3H-imidazo[4,5-b]pyridine], it took 2 µM to reach half-maximal inhibition (IC50).

With `OCCCOc1ccccc1-c1nc2ncccc2[nH]1` [3-[2-(3H-Imidazo[4,5-b]pyridin-2-yl)-phenoxy]-propan-1-ol], the IC50 came out at 24 µM.

Turning to `CCCNc1ccccc1-c1nc2ncccc2[nH]1` [[2-(3H-Imidazo[4,5-b]pyridin-2-yl)-phenyl]-propyl-amine], inhibition was half-maximal at 26 µM (IC50).

These data come from BindingDB's records for doi:10.1021/jm00062a011 (Smithkline Beecham Pharmaceuticals, 1993).
